From ChEMBL document CHEMBL1159223, “4-Dehydroecdysterone, a new ecdysteroid from the zoanthid Parazoanthus sp” (J Nat Prod, 1995)
Activity calls are given as the source filed them. No cut-off for these calls is given here.

System: Candida albicans
Assay: Antifungal activity against Candida albicans
Format: functional, organism-based

Row | Compound | Activity
1 | CC(C)CC[C@H](O)[C@](C)(O)[C@H]1CC[C@@]2(O)C3=CC(=O)[C@@H]4C[C@@H](O)[C@@H](O)C[C@]4(C)[C@H]3[C@H](O)C[C@]12C | inactive
2 | CNc1nc2c(C)ccc3nc(N(C)C)[nH]c3c-2n1 | inactive
3 | CC(C)(O)CC[C@H](O)[C@](C)(O)[C@H]1CC[C@@]2(O)C3=CC(=O)C4=C[C@@H](O)[C@@H](O)C[C@]4(C)[C@H]3CC[C@]12C | inactive
4 | CC(C)(O)CC[C@@H](O)[C@](C)(O)[C@H]1CC[C@@]2(O)C3=CC(=O)[C@@H]4C[C@@H](O)[C@@H](O)C[C@]4(C)[C@H]3CC[C@]12C | inactive
